Common to all, as to test: DTP human tumour cell line panel, 48 h
Assay [1] has as its system OVCAR-3 ovarian.
The test system of assay [2] is A498 renal.
Assay [3] deals with RXF 393 renal.
Assay [4] has as its system HT29 colon.
For assay [5], the system named is OVCAR-5 ovarian.
For assay [6], the system named is HCT-15 colon.
Assay [7] relates to HS 578T breast.
Assay [8] concerns OVCAR-4 ovarian.
For assay [9], the system named is NCI-H226 lung.
The test system of assay [10] is U251 CNS.

This is an account of results in PubChem BioAssay (NCI).

The term GI50 denotes the concentration that inhibits growth by half. As usually defined, the TGI is the concentration at which net growth stops.

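Exposure lasted 48 hours, with cells grown in 96-well plates and compounds tested at five concentrations. GI50: concentration for 50% inhibition of growth. Definition used: TGI = concentration required for complete inhibition of growth.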

`Cc1cccc2c1O/C(=C\c1ccc([N+](=O)[O-])o1)C2=O`: the GI50 in assay [1] was 0.689 µM; in assay [2], 1.76 µM; in assay [3] it was 1.24 µM; in assay [4], 0.324 µM; in assay [5] it was 1.79 µM; in assay [6], 0.274 µM. The GI50 in [7] is 2.25 µM; in [8], 2.06 µM; in assay [9], 1.42 µM; in assay [10] it was 1.44 µM. In addition, the TGI came out at 1.89 µM in assay [1]; 4.63 µM in assay [2]; 2.83 µM in assay [3]; 1.27 µM in assay [4]; 3.74 µM in [5]; 0.998 µM in [6]. Besides, the TGI in assay [7] is greater than 25 µM; in assay [8] it was 8.06 µM; in [9] it was 3.14 µM; in assay [10] it was 2.89 µM.
Regarding `O=C1c2ccn(CCCCN3CCCCC3)c2C(=O)c2c1c(O)c1ccccc1c2O`, the GI50 is 10.5 µM in [1]; 15.3 µM in assay [2]; 5.54 µM in assay [3]; 4.14 µM in assay [4]; 17.9 µM in assay [5]; 2.74 µM in [6]. The GI50 in assay [7] was 27 µM; in assay [8], 9.48 µM; in [9], 30 µM; in [10] it was 6.16 µM. Besides, the concentration for total growth inhibition (TGI) in assay [1] is 41.9 µM; in assay [2], 35.1 µM; in assay [3] it was 18 µM; in assay [4] it was greater than 100 µM; in assay [5] it was greater than 46 µM; in assay [6], 7.98 µM. The TGI was 65.1 µM in assay [7], greater than 61.1 µM in [8] and greater than 73.7 µM in [9].
`C=C1CC2(CCCC3(CC(=C)C(=O)O3)C2(C)C)OC1=O` (configuration not stated): the TGI was 6.78 µM in assay [1]; 41.9 µM in assay [2]; 31 µM in assay [3]; 15 µM in [4]; 3.33 µM in [5]; 1.99 µM in assay [6]. Besides, the TGI is 58 µM in [7], 20.2 µM in [8], 6.57 µM in [9] and 4.56 µM in assay [10].
In the case of `CC(O)(CNS(=O)(=O)c1ccccc1)c1ccccc1` (configuration not stated), the concentration for total growth inhibition (TGI) in assay [1], in assay [2], in assay [3], in assay [4], in [5] and in assay [6] was greater than 100 µM throughout. Moreover, the TGI in [7], in [8], in assay [9] and in [10] was greater than 100 µM each time.
For `CN1CCN(CCNc2ccc(CO)c3sc4ccccc4c(=O)c23)CC1`, the TGI in assay [1] came out at 18.3 µM; in assay [2], 8.2 µM; in assay [3], 1.82 µM; in assay [4], 7.86 µM; in [5], 21.2 µM; in assay [6], 18 µM. Also, the concentration for total growth inhibition (TGI) in assay [7] amounted to 31.8 µM; in assay [8], 13.3 µM; in [9], 13 µM; in assay [10], 14.6 µM. The figures for the GI50 in [2], in [3] and in assay [7] were 2.51 µM, 0.0726 µM and 10.7 µM, respectively.
As for `CCN(CC)CCOc1ccc2c(c1)C(=O)c1cc(OCCN(CC)CC)ccc1-2`, the GI50 in assay [1] is 18.3 µM; in [2], 16.5 µM; in assay [3], 10.2 µM; in [4] it was 2.58 µM; in assay [5], 35.6 µM; in assay [6] it was 12.1 µM. For the same compound, the GI50 in [7] is 13.7 µM; in assay [8], 5.69 µM; in [9], 11.7 µM; in assay [10], 8.73 µM. The TGI is 52.6 µM in assay [1]; 37.5 µM in assay [2]; 24 µM in assay [3]; 10.4 µM in assay [4]; 69.7 µM in assay [5]; 44.6 µM in [6]. For the same compound, the total growth inhibition concentration (TGI) stood at 38 µM in [7], 38.7 µM in assay [8], 34.2 µM in assay [9] and 31.3 µM in [10].
For the compound `CS(=O)(=O)CCn1c(=O)c(Oc2ccc(F)cc2F)cc2cnc(NC3CCOCC3)nc21`, the GI50 is greater than 25 µM in assay [1]; 15.8 µM in assay [2]; greater than 25 µM in assay [3]; greater than 25 µM in assay [4]; greater than 25 µM in assay [5]; greater than 25 µM in assay [6]. For the same compound, the GI50 in assay [7], in assay [8], in [9] and in assay [10] was greater than 25 µM throughout. The TGI in assay [1], in assay [2], in [3], in [4], in [5] and in assay [6] was greater than 25 µM in each case. Moreover, the TGI in assay [7], in assay [8], in assay [9] and in assay [10] was greater than 25 µM each time.
In the case of `COC1C(O)C(C)OC(OC2CC3CCC4C(CCC5(C)C(C6=CC(=O)OC6)CCC45O)C3(O)C(OC(C)=O)C2)C1O` (configuration not stated), the TGI was 3.38 µM in assay [1]; 3.5 µM in [2]; 1.32 µM in assay [3]; 12.7 µM in assay [4]; 5.87 µM in [5]; 5.41 µM in [6]. The total growth inhibition concentration (TGI) in assay [7] is greater than 100 µM; in assay [8] it was 17.1 µM; in assay [9] it was 10.3 µM; in [10] it was greater than 24.2 µM.
As to `NC(Cc1ccnnc1)C(=O)O` (configuration not stated), the TGI in [1], in assay [2], in assay [3], in assay [4], in assay [5] and in assay [6] was greater than 100 µM throughout. Also, the TGI in assay [7], in [8], in assay [9] and in assay [10] was greater than 100 µM throughout.
Regarding `O=S(=O)(O)/C(=C\c1ccccc1)c1ccccc1` (tested in a mixture with another compound), the concentration for total growth inhibition (TGI) in assay [1], in [2], in assay [3], in assay [4], in assay [5] and in assay [6] was greater than 100 µM in each case. The TGI in assay [7], in assay [8], in assay [9] and in assay [10] was greater than 100 µM each time.
